# Measurements published in patent publication US20160193219A1, “SUBSTITUTED 2,3-DIHYDROIMIDAZO[1,2-C]QUINAZOLINE SALTS” (priority 2011, published 2016).
# Like-named read-outs stand apart in the source and are kept apart here.
# What was measured:
# HCT116 = test: Proliferation assay (Cell Titer-Glo, 72 h), HCT116; conditions: Homo sapiens, HCT-116, 72 h, HCT116, Colon
# HT29 = test: Proliferation assay (Cell Titer-Glo, 72 h), HT29; conditions: HT29, Colon, listed as free base
# LNCaP = test: Proliferation assay (Cell Titer-Glo, 72 h), LNCaP; conditions: Homo sapiens, 72 h, Prostate
# T47D = test: Proliferation assay (Cell Titer-Glo, 72 h), T47D; conditions: Breast, listed as free base
# PC3 = test: Proliferation assay (Cell Titer-Glo, 72 h), PC3; conditions: Homo sapiens, PC-3, 72 h, PC3, Prostate
# Colo205 = test: Proliferation assay (Cell Titer-Glo, 72 h), Colo205; conditions: Colo205, Colon, listed as free base
# U87MG = test: Proliferation assay (Cell Titer-Glo, 72 h), U87MG; conditions: Homo sapiens, U-87 MG
# BT20 = test: Proliferation assay (Cell Titer-Glo, 72 h), BT20; conditions: BT20, Breast, listed as free base
# KPL4 = test: Proliferation assay (Cell Titer-Glo, 72 h), KPL4; conditions: KPL4, 72 h
# MCF7 = test: Proliferation assay (Cell Titer-Glo, 72 h), MCF7; conditions: MCF7, Breast, listed as free base
# BT474 = test: Proliferation assay (Cell Titer-Glo, 72 h), BT474; conditions: Homo sapiens, BT-474, 72 h, BT474, Breast
# MDA-MB-468 = test: Proliferation assay (Cell Titer-Glo, 72 h), MDA-MB-468; conditions: MDA-MB-468, Breast, listed as free base
# H460 = test: Proliferation assay (Cell Titer-Glo, 72 h), H460; conditions: Homo sapiens, NCI-H460, 72 h, H460, Lung
# SK-Br-3 = test: Proliferation assay (Cell Titer-Glo, 72 h), SK-Br-3; conditions: Homo sapiens, SK-BR-3, 72 h, SK-Br-3, Breast
# A549 = test: Proliferation assay (Cell Titer-Glo, 72 h), A549; conditions: Homo sapiens, A549, 72 h, A549, Lung
# 786O = test: Proliferation assay (Cell Titer-Glo, 72 h), 786O; conditions: Kidney, listed as free base
# [1] = Stability as solid (stored at 90° C. for 1 week, HPLC); assay type: physicochemical
compound,measurement,setting,value
"COc1c(OCCCN2CCOCC2)ccc2c1N=C(NC(=O)c1cnc(N)nc1)N1CCN=C21 [compound of formula (I), 2-amino-N-[7-methoxy-8-(3-morpholin-4-ylpropoxy)-2,3-dihydroimidazo[1,2-c]quinazolin-5-yl]pyrimidine-5-carboxamide]",IC50,HCT116,56 nM
same,IC50,HT29,27 nM
same,IC50,LNCaP,69 nM
same,IC50,T47D,6 nM
same,Appearance,"0.1M HCl, 1 week, 25° C.",slightly colored solution
same,"Organic impurities, single","0.1M HCl, 1 week, 25° C.",7.15 Area %
same,"Organic impurities, sum of all","0.1M HCl, 1 week, 25° C.",24.27 Area %
same,Appearance,"0.1M HCl, 1 week, 70° C.",slightly colored solution
same,"Organic impurities, single","0.1M HCl, 1 week, 70° C.",25.48 Area %
same,"Organic impurities, sum of all","0.1M HCl, 1 week, 70° C.",100.00 Area %
same,Appearance,"0.1M HCl, 24 h, 25° C.",slightly colored solution
same,"Organic impurities, single","0.1M HCl, 24 h, 25° C.",1.90 Area %
same,"Organic impurities, sum of all","0.1M HCl, 24 h, 25° C.",8.75 Area %
same,Appearance,"0.1M HCl, 24 h, 70° C.",slightly colored solution
same,"Organic impurities, single","0.1M HCl, 24 h, 70° C.",22.82 Area %
same,"Organic impurities, sum of all","0.1M HCl, 24 h, 70° C.",92.49 Area %
same,Appearance,"0.1M HCl, Initial",slightly colored solution
same,"Organic impurities, single","0.1M HCl, Initial",1.13 Area %
same,"Organic impurities, sum of all","0.1M HCl, Initial",5.87 Area %
same,Appearance,"0.1M NaOH, 1 week, 25° C.",slightly colored solution
same,"Organic impurities, single","0.1M NaOH, 1 week, 25° C.",22.03 Area %
same,"Organic impurities, sum of all","0.1M NaOH, 1 week, 25° C.",86.64 Area %
same,Appearance,"0.1M NaOH, 1 week, 70° C.",slightly colored solution
same,"Organic impurities, single","0.1M NaOH, 1 week, 70° C.",32.63 Area %
same,"Organic impurities, sum of all","0.1M NaOH, 1 week, 70° C.",99.90 Area %
same,Appearance,"0.1M NaOH, 24 h, 25° C.",slightly colored solution
same,"Organic impurities, single","0.1M NaOH, 24 h, 25° C.",10.02 Area %
same,"Organic impurities, sum of all","0.1M NaOH, 24 h, 25° C.",45.40 Area %
same,Appearance,"0.1M NaOH, 24 h, 70° C.",slightly colored solution
same,"Organic impurities, single","0.1M NaOH, 24 h, 70° C.",23.94 Area %
same,"Organic impurities, sum of all","0.1M NaOH, 24 h, 70° C.",99.88 Area %
same,Appearance,"0.1M NaOH, Initial",slightly colored solution
same,"Organic impurities, single","0.1M NaOH, Initial",6.51 Area %
same,"Organic impurities, sum of all","0.1M NaOH, Initial",30.72 Area %
same,Appearance,"Buffer pH 7, 1 week, 25° C.",slightly colored turbid
same,"Organic impurities, single","Buffer pH 7, 1 week, 25° C.",0.82 Area %
same,"Organic impurities, sum of all","Buffer pH 7, 1 week, 25° C.",4.85 Area %
same,Appearance,"Buffer pH 7, 1 week, 70° C.",slightly colored solution
same,"Organic impurities, single","Buffer pH 7, 1 week, 70° C.",39.01 Area %
same,"Organic impurities, sum of all","Buffer pH 7, 1 week, 70° C.",97.65 Area %
same,Appearance,"Buffer pH 7, 24 h, 25° C.",slightly colored turbid
same,"Organic impurities, single","Buffer pH 7, 24 h, 25° C.",0.20 Area %
same,"Organic impurities, sum of all","Buffer pH 7, 24 h, 25° C.",3.22 Area %
same,Appearance,"Buffer pH 7, 24 h, 70° C.",slightly colored solution
same,"Organic impurities, single","Buffer pH 7, 24 h, 70° C.",23.25 Area %
same,"Organic impurities, sum of all","Buffer pH 7, 24 h, 70° C.",56.06 Area %
same,Appearance,"Buffer pH 7, Initial",slightly colored turbid
same,"Organic impurities, single","Buffer pH 7, Initial",0.23 Area %
same,"Organic impurities, sum of all","Buffer pH 7, Initial",3.15 Area %
same,Appearance,"Water, 1 week, 25° C.",slightly colored solution
same,"Organic impurities, single","Water, 1 week, 25° C.",0.54 Area %
same,"Organic impurities, sum of all","Water, 1 week, 25° C.",5.33 Area %
same,Appearance,"Water, 1 week, 70° C.",slightly colored solution
same,"Organic impurities, single","Water, 1 week, 70° C.",45.44 Area %
same,"Organic impurities, sum of all","Water, 1 week, 70° C.",98.59 Area %
same,Appearance,"Water, 24 h, 25° C.",slightly colored solution
same,"Organic impurities, single","Water, 24 h, 25° C.",0.23 Area %
same,"Organic impurities, sum of all","Water, 24 h, 25° C.",3.43 Area %
same,Appearance,"Water, 24 h, 70° C.",slightly colored solution
same,"Organic impurities, single","Water, 24 h, 70° C.",25.89 Area %
same,"Organic impurities, sum of all","Water, 24 h, 70° C.",58.00 Area %
same,Appearance,"Water, Initial",slightly colored solution
same,"Organic impurities, single","Water, Initial",0.25 Area %
same,"Organic impurities, sum of all","Water, Initial",2.79 Area %
same,IC50,PC3,100 nM
same,IC50,Colo205,48 nM
same,IC50,U87MG,85 nM
same,IC50,BT20,6 nM
same,IC50,KPL4,3 nM
same,IC50,MCF7,27 nM
same,IC50,BT474,5 nM
same,IC50,MDA-MB-468,760 nM
same,IC50,H460,46 nM
same,IC50,SK-Br-3,2 nM
same,IC50,A549,37 nM
same,IC50,786O,116 nM
same,stability in solid form,[1],stable in solid form
same,therm. stab. solid,[1]; 1 w @ 90° C.,++
